In the first experiment the target is T1, Indoleamine 2,3-Dioxygenase (IDO) (Homo sapiens, UniProt P14902).
T1 construct: endogenous in cells; host or cells: HeLa (ATCC CCL-2), stimulated with IFNγ 25 ng/mL
T1 sequence (P14902 whole entry): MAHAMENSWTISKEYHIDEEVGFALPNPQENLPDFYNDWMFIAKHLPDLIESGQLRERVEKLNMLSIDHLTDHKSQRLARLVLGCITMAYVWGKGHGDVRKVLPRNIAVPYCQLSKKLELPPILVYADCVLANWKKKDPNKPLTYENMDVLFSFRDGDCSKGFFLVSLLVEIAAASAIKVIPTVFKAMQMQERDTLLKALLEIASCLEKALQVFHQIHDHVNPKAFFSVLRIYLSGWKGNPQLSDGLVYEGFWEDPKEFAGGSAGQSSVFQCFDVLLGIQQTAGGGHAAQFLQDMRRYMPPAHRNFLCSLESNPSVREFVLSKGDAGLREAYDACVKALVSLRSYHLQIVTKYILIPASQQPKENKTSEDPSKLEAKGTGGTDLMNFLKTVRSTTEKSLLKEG
In words: HeLa cell-based indoleamine 2,3-dioxygenase (IDO) assay (kynurenine production). Particulars: HeLa cells, IFNγ 25 ng/mL, 48 hour incubation, kynurenine absorbance at 480 nm. The procedure: Assessment of Inhibitor Activity in HeLa Cell-Based Indoleamine 2,3-Dioxygenase (IDO) Assay:
HeLa (ATCC® CCL-2) cells were obtained from the ATCC® and cultured in Dulbecco's Modified Eagle Medium supplemented with 4.5 g/L glucose, […] (#10-013-CV, Corning), 2 mM L-alanyl-L-glutamine dipeptide (#35050-061, Gibco), 100U/mL penicillin, 100 μg/mL streptomycin (#SV30010, HyClone) and 10% fetal bovine serum (#SH30071.03 HyClone). Cells were maintained in a humidified incubator at 37° C. in 5% CO2.
IDO activity was assessed as a function of kynurenine production as follows: HeLa cells were seeded in a 96-well culture plate at a density of 5,000 cells/well and allowed to equilibrate overnight. After 24 hours, the media was aspirated and replaced with media containing IFNγ (#285-IF/CF, R&D Systems) at a final concentration of 25 ng/mL. A serial dilution of each test compound was added to the cells in a total volume of 200 μL of culture medium. After a further 48 hour incubation, 170 μL of supernatant was transferred from each well to a fresh 96-well plate. 12.1 μL of 6.1N trichloroacetic acid (#T0699, Sigma-Aldrich) was added to each well and mixed, followed by incubation at 65° C. for 20 minutes to hydrolyze N-formylkynurenine, the product of indoleamine 2,3-dioxygenase, to kynurenine. The reaction mixture was then centrifuged for 10 mins at 500×g to sediment the precipitate. 100 μL of the supernatant was transferred from each well to a fresh 96-well plate. 100 μl of 2% (w/v) p-dimethylaminobenzaldehyde (#15647-7, Sigma-Aldrich) in acetic acid (#A6283, Sigma-Aldrich) was added to each well mixed and incubated at room temperature for 20 mins. Kynurenine concentrations were determined by measuring absorbance at 480 nm and calibrating against an L-kynurenine (#K8625, Sigma-Aldrich) standard curve using a SPECTRAMAX® M2e microplate reader (Molecular Devices). The percentage activity at each inhibitor concentration was determined and IC50 values assessed using nonlinear regression.
For the compound `CC1(CC(=O)NC23CC4CC(CC(C4)C2)C3)CCN(c2ccnc3ccc(F)cc23)CC1` [Example 16, N-((3s,5s,7s)-Adamantan-1-yl)-2-(1-(6-fluoroquinolin-4-yl)-4-methylpiperidin-4-yl)acetamide], half-maximal inhibition (IC50) required 31 nM.

Take `C[C@@H](NC(=O)C12CCC(Cl)(CC1)CC2)[C@H]1CC[C@@H](c2ccnc3ccc(F)cc32)CC1` [Example 1, 4-chloro-N—((R)-1-((cis)-4-(6-fluoroquinolin-4-yl)cyclohexyl)ethyl)bicyclo [2.2.2]octane-1-carboxamide]: the IC50 stood at 24 nM.

Consider `C[C@@H](NC(=O)C1CC(F)(F)C1)[C@H]1CC[C@@H](c2ccnc3ccc(F)cc32)CC1` [Example 7, 3,3-difluoro-N-((R)-1-((1s,4S)-4-(6-fluoroquinolin-4-yl)cyclohexyl)ethyl)cyclobutanecarboxamide], for which the IC50 is 550 nM.

`CCC(C(=O)NC1[C@H]2C[C@@H]3C[C@@H](C[C@H]1C3)C2)C1CCN(Cc2cccc(C(F)(F)F)n2)CC1` (single isomer, unassigned) [Example 21, N-(Adamantan-2-yl)-2-(1-((6-(trifluoromethyl)pyridin-2-yl)methyl)piperidin-4-yl)butanamide] gave an IC50 of 20 nM.

Regarding `C[C@@H](C(=O)NC12CC3CC(C)(CC(C)(C3)C1)C2)[C@H]1CC[C@@H](c2ccnc3ccc(F)cc32)CC1` [Example 23, (cis)-(2R)—N-(3,5-dimethyladamantan-1-yl)-2-(4-(6-fluoroquinolin-4-yl)cyclohexyl)propanamide], the IC50 was 14 nM.

`CCC(C(=O)NC1[C@H]2C[C@@H]3C[C@@H](C[C@H]1C3)C2)C1CCN(Cc2cccc(C(F)(F)F)n2)CC1` (single isomer, unassigned) [Example 22, N-(Adamantan-2-yl)-2-(1-((6-(trifluoromethyl)pyridin-2-yl)methyl)piperidin-4-yl)butanamide] displayed an IC50 of 1000 nM.

In the case of `COc1ccc(CN(C(=O)NC2CCCCC2)[C@H]2CC[C@H](c3ccccc3)CC2)cc1` [Example 13, 3-cyclohexyl-1-(4-methoxybenzyl)-1-((1r,4r)-4-phenylcyclohexyl)urea], the IC50 came out at 66 nM.

Consider `C[C@@H](NC(=O)C1CCCCC1)[C@H]1CC[C@@H](c2ccnc3ccc(F)cc32)CC1` [Example 5, N-((R)-1-((1s,4S)-4-(6-fluoroquinolin-4-yl)cyclohexyl)ethyl)cyclohexanecarboxamide], for which the 50% inhibitory concentration (IC50) turned out to be 11 nM.

`C[C@@H](NC(=O)C1CCN(c2ccc(F)cc2)CC1)[C@H]1CC[C@@H](c2ccnc3ccc(F)cc32)CC1` [Example 2, 1-(4-Fluorophenyl)-N—((R)-1-((1s,4S)-4-(6-fluoroquinolin-4-yl)cyclohexyl)ethyl) piperidine-4-carboxamide] came in with an IC50 of 22 nM.

Take `C[C@@H](NC(=O)N1CCN(c2ccccc2)CC1)[C@H]1CC[C@@H](c2ccnc3ccc(F)cc32)CC1` [Example 4, N—((R)-1-((1s,4 S)-4-(6-Fluoroquinolin-4-yl)cyclohexyl)ethyl)-4-phenylpiperazine-1-carboxamide]: the IC50 was 18 nM.

For another experiment, the target named is T2, human IDO1 (Homo sapiens, UniProt P14902).
T2 construct: expressed in transfected cells
T2 sequence (P14902 whole entry): as above
In words: IDO inhibition assay in human IDO1/HEK293 cells. The experiment is classed as cell-based. Particulars: HEK293 cells stably expressing human IDO1, 20 hours incubation, absorbance at 490 nm; read-out: IDO1 HEK Human IC50. As to the method: HEK293 cells were transfected with a pCDNA-based mammalian expression vector harboring human IDO1 cDNA (NM 002164.2) by electroporation. They were cultured in medium (DMEM with 10% FBS) containing 1 mg/ml G418 for two weeks. Clones of HEK293 cells that stably expressed human IDO1 protein were selected and expanded for IDO inhibition assay.
The human IDO1/HEK293 cells were seeded at 10,000 cells per 50 μL per well with RPMI/phenol red free media contains 10% FBS in a 384-well black wall clear bottom tissue culture plate (Matrix Technologies LLC) 100 nL of certain concentration of compound was then added to each well using ECHO liquid handling systems. The cells were incubated for 20 hours in 37° C. incubator with 5% CO2.
The compound treatments were stopped by adding trichloroacetic acid (Sigma-Aldrich) to a final concentration at 0.2%. The cell plate was further incubated at 50° C. for 30 minute. The equal volume supernatant (20 μL) and 0.2% (w/v) Ehrlich reagent (4-dimethylaminobenzaldehyde, Sigma-Aldrich) in glacial acetic acid were mixed in a new clear bottom 384-well plate. This plate was then incubated at room temperature for 30 minute. The absorbance at 490 nm was measured on Envision plate reader.
Compound IC50 values were calculated using the counts of 500 nM of a reference standard treatment as one hundred percent inhibition, and counts of no compound but DMSO treatment as zero percent inhibition.
For `CC1(CC(=O)N[C@@]23C[C@@H]4C[C@@H](C[C@@](O)(C4)C2)C3)CCN(c2ccnc3ccc(F)cc23)CC1` [Example 17, 2-(1-(6-Fluoroquinolin-4-yl)-4-methylpiperidin-4-yl)-N-((1r,3s,5R,7S)-3-hydroxyadamantan-1-yl)acetamide], the IC50 was determined as 390 nM.

In the case of `COc1ccc(CN(C(=O)NC2CC2)[C@H]2CC[C@H](c3ccccc3)CC2)cc1` [Example 15, 3-cyclopropyl-1-(4-methoxybenzyl)-1-((1r,4r)-4-phenylcyclohexyl)-urea], the IC50 is 240 nM.

As for `C[C@@H](NC(=O)[C@H]1CC[C@H](O)CC1)[C@H]1CC[C@@H](c2ccnc3ccc(F)cc32)CC1` [Example 12, (1r,4R)-N-((R)-1-((1s,4S)-4-(6-fluoroquinolin-4-yl)cyclohexyl)ethyl)-4-hydroxycyclohexane carboxamide], the IC50 was 170 nM.

`C[C@H](NC(=O)C1CCC(O)CC1)C1CCC(c2ccnc3ccc(F)cc23)CC1` (stereo partly drawn) [Example 11, (1s,4S)-N-((R)-1-((1s,4S)-4-(6-fluoroquinolin-4-yl)cyclohexyl)ethyl)-4-hydroxycyclohexane carboxamide]: the IC50 was determined as 750 nM.

As to `C[C@@H](NC(=O)C1CC1)[C@H]1CC[C@@H](c2ccnc3ccc(F)cc32)CC1` [Example 6, N-((R)-1-((1s,4S)-4-(6-fluoroquinolin-4-yl)cyclohexyl)ethyl)cyclopropanecarboxamide], the IC50 worked out at 810 nM.

`CCCC(C(=O)NC12CC3CC(CC(C3)C1)C2)N1CCN(c2ccnc3ccc(F)cc23)CC1` (single isomer, unassigned) [Example 19]: the half-maximal inhibitory concentration (IC50) was found to be 1800 nM.

As for `C[C@@H](NC(=O)[C@H]1C[C@@H](F)C1)[C@H]1CC[C@@H](c2ccnc3ccc(F)cc32)CC1` [Example 9, (1s,3S)-3-fluoro-N-((R)-1-((1s,4S)-4-(6-fluoroquinolin-4-yl)cyclohexyl)ethyl)cyclobutanecarboxamide], the IC50 turned out to be 620 nM.

With `C[C@@H](NC(=O)C1CCC1)[C@H]1CC[C@@H](c2ccnc3ccc(F)cc32)CC1` [Example 10, N-((R)-1-((1s,4S)-4-(6-fluoroquinolin-4-yl)cyclohexyl)ethyl) cyclobutanecarboxamide], the IC50 came to 190 nM.

With `CCCC(C(=O)NC12CC3CC(CC(C3)C1)C2)N1CCN(c2ccnc3ccc(F)cc23)CC1` (single isomer, unassigned) [Example 20], the IC50 turned out to be 1900 nM.

In the case of `COc1ccc(CN(C(=O)NC2CCCC2)[C@H]2CC[C@H](c3ccccc3)CC2)cc1` [Example 14, 3-cyclopentyl-1-(4-methoxybenzyl)-1-((1r,4r)-4-phenylcyclohexyl)-urea], the IC50 amounted to 120 nM.

Regarding `COc1ccc(N2CCC(C(=O)N[C@H](C)[C@H]3CC[C@@H](c4ccnc5ccc(F)cc54)CC3)CC2)cc1` [Example 3, N—((R)-1-((1s,4S)-4-(6-Fluoroquinolin-4-yl)cyclohexyl)ethyl)-1-(4-methoxyphenyl)piperidine-4-carboxamide], the IC50 was found to be 800 nM.

On to `C[C@@H](NC(=O)C1CC(F)C1)C1CCC(c2ccnc3ccc(F)cc23)CC1` (stereo partly drawn) [Example 8, (1r,3R)-3-fluoro-N-((R)-1-((1s,4S)-4-(6-fluoroquinolin-4-yl)cyclohexyl)ethyl)cyclobutanecarboxamide], for which the IC50 was determined as 570 nM.

As for `CC1(CC(=O)NC23CC4CC(CC(C4)C2)C3)CCN(c2ccnc(C(F)(F)F)c2)CC1` [Example 18, N-((3 s,5 s, 7 s)-Adamantan-1-yl)-2-(4-methyl-1-(2-(trifluoromethyl)pyridin-4-yl)piperidin-4-yl)acetamide], the IC50 is 180 nM.

What is called IC50 is the concentration that inhibits the measured activity by half.

Source of the values: patent US11649212B2, “Inhibitors of indoleamine 2,3-dioxygenase and methods of their use” (BRISTOL-MYERS SQUIBB COMPANY, priority 2017, dated 2023).
